Assays:
[1] = test system: rice (Oryza sativa) plastidal ACCase; experiment: Clethodim tolerance of rice ACCase mutations, yeast complementation assay (Examples 1-3); assay type: cell-based
Source text: Joachimiak M. et al Proc Natl Acad Sci U.S.A. 1997 Sep. 2; 94 (18): 9990-5 and WO/2013/074524 and WO/2013/074524 each describe methods to complement a yeast (Saccharomyces cerevisiae) strain lacking the native acc1 gene with either a wt or mutated form of a chimeric plastidal ACCase gene from a plant such as rice (Oryza sativa). Methods to introduce one or more mutations listed herein into the chimeric ACCase gene and subsequently complement the acc1 lacking yeast strain are well known by an individual skilled in the art. In the art assays are known for measuring tolerance of a mutated plant ACCase gene versus a herbicide that is a member of the aryloxyphenoxypropanoate, cyclohexanedione, and/or phenylpyrazoline families of herbicides such as clethodim, sethoxydim, fluazifop, haloxyfop, quizalofop, and pinoxaden (Joachimiak M. et al Proc Natl Acad Sci U.S.A. 1997 Sep. 2; 94 (18): 9990-5 and WO/2013/074524).
A library of random mutations in the rice (Oryza sativa) plastidal ACCase gene was generated and screened for clethodim tolerant clones using a yeast complementation assay.

[2] = Cha et al., Pesticide Biochemistry and Physiology 111 (2014) 7-13; cited from earlier work

Substance: N2097D: mutated ACCase, numbering per SEQ ID NO: 2
- clethodim tolerance ([1]; ACCase mutation tested with the herbicide clethodim): neither the N2097S nor the N2097D single mutations provide detectable clethodim tolerance
- effect on clethodim tolerance when combined with D2078G, V2075L or V2098A ([1]; combined with either D2078G, V2075L or V2098A): produces opposing results
- tolerance to the fluazifop herbicide [2]: associated with tolerance to the fluazifop herbicide
